These results are taken from patent US20060106102A1, “Napththalene derivatives which inhibit the cytokine or biological activity of microphage migration inhibitory factor (mif)” (priority 2002, published 2006).

Where two headings read alike, the source gives them in different places.

For assay [1], the system named is IL-1-induced COX-2 expression. The assay can be described thus: IL-1-induced COX-2 expression in S112 human dermal fibroblasts (MIF-dependent event), flow cytometry. Type of assay: cell-based. The procedure, abridged: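 Human dermal fibroblasts seeded at 10^5 cells/ml in RPMI/0.1% BSA for 18 h, then IL-1 stimulated with or without compound. Saponin-permeabilised cells stained with anti-COX-2 mAb plus FITC secondary; flow cytometry MFI, negative control subtracted, duplicates. Result is % inhibition of IL-1-induced MFI, mean or mean±SEM.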
Background: A flow cytometer gives signals particle by particle.

The subject of assay [2] is recombinant human macrophage migration inhibitory factor (MIF)-induced proliferation of S112 human dermal fibroblasts. The experiment in a line: MIF-induced proliferation of S112 human dermal fibroblasts, 3H-thymidine incorporation. Type of assay: cell-based. Here is the method:
The activity of each compound was studied in a bioassay utilising MIF-induced proliferation of human dermal fibroblasts. S112 human dermal fibroblasts were propagated in RPMI/10% foetal calf serum (FCS). Prior to experimentation, cells were seeded at 10^5 cells/ml in RPMI/0.1% BSA for 18 hours. At time point zero, culture medium was replaced with RPMI/10% FCS and treatments administered. Cells were treated with recombinant human macrophage migration inhibitory factor (MIF) 50 ng/ml (1.353×10^−9 M) and/or the compound at a 1 or 1000 molar ratio to the concentration of MIF. In some experiments the compound was combined with MIF at time point −30 minutes, prior to adding at time point zero. At time point 30 hours, cells were pulsed with […]. At time point 48 hours, cells were harvested using a semi-automated cell harvester. The radioactivity incorporated into DNA was determined by liquid scintillation counting, with results expressed as [^3H] thymidine incorporation. The proliferation of untreated cells was expressed as 100% and the effect of MIF and each compound expressed in relative %.
The activity of compound 5 was studied in a bioassay utilising MIF-induced proliferation of human dermal fibroblasts. S112 human dermal fibroblasts were propagated in RPMI/10% foetal calf serum (FCS). Prior to experimentation, cells were seeded at 10^5 cells/ml in RPMII/0.1% BSA for 18 hours. At time point zero, culture medium was replaced with RPMI/10% FCS and treatments administered. Cells were treated with recombinant human macrophage migration inhibitory factor (MIF) 50 ng/ml and/or compound 5 at a 1-1000 molar ratio to the concentration of MIF. At a time point 30 hours later, cells were pulsed with 1 μCi/well of ^3H-thymidine. At a time point 48 hours after commencement of the experiment, cells were harvested using a semi-automated cell harvester. The radioactivity incorporated into DNA was determined by liquid scintillation counting, with results expressed as [^3H] thymidine incorporation.
Background: Dividing cells build labelled thymidine or BrdU into new DNA.

Assay [3] relates to antigen-specific T cell activation (splenic T lymphocytes from mBSA-immunised mice). The experiment in a line: antigen-specific (mBSA) activation of splenic T lymphocytes in vitro, 3H-thymidine incorporation. Type of assay: cell-based, C57BL6/J mice. The conditions noted are these: Mus musculus, T-cell, read-out: EC50 (T cell activation suppressed by 50% compared to vehicle-only-treated cells). The procedure, abridged: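 Splenocytes from mBSA-immunised mice, erythrocytes lysed, stimulated with mBSA 10–50 μg/mL for 30 h at 37 °C, 5% CO2. 3H-thymidine (0.5 μCi/well) then added for 18 h; proliferation read by scintillation counting.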

Assay [4] has as its system LPS-induced IL-1 release from peritoneal macrophages. The assay can be described thus: LPS-induced interleukin 1 release from murine peritoneal macrophages, ELISA. Type of assay: cell-based, C57BL6/J mice. The method, then: C57BL6/J male mice were injected intraperitoneally with 2ml of thioglycollate. Five (5) days later peritoneal macrophages were collected by ravaging the peritoneum of anaesthetized mice with 3 ml of cold Hanks buffered saline solution. Cells from several mice were pooled, washed and re-suspended in DMEM supplemented with 5% FCS. Cells were plated in 96 well plastic tissue culture plates at 1×10^5 cells/well. Cells were treated with compound or vehicle for 1 hour in a 5% CO2 incubator at 37° C. Cells were then treated with LPS (10 ng/ml) and incubated for 24 hours. After 24 hours, 50 μl of supernatant from each well was carefully removed and transferred to ELISA plates. The concentration of interleukin 1 (IL-1 ) was measured by ELISA. The concentration of compound at which LPS-induced cytokine release was suppressed by 50% compared to vehicle-only-treated cells (EC50) was calculated using Prism® software. FIG. 13 and Table 8 provide the data for compound 6 tested in this assay.
In general terms: In an ELISA, binding on a coated surface is turned into a signal by an enzyme label.

For orientation: EC50 means the concentration that produces a half-maximal response. Regarding `O=S(=O)(O)c1ccc2cc(O)c(O)cc2c1` [Compound 6, 6,7-dihydroxynaphthalene-2-sulfonic acid], the “inhibition of IL1-induced COX-2 expression, dose response (FIG. 3)” value in assay [1] (0.01, 0.1, 1.0, 10 and 50 μM) is listed as “Dose-dependent inhibition”. Moreover, the inhibition at 1 µM in assay [1] (Homo sapiens, Fibroblast, compound 1 uM, IL-1 0.1 ng/ml, 6 hours, S112 cells, read-out: % inhibition of IL-1-induced COX2 expression (Effect)) stood at 16.4%. Besides, the inhibition at 10 µM in assay [1] (Homo sapiens, Fibroblast, compound 10 uM, IL-1 0.1 ng/ml, 6 hours, S112 cells, read-out: % inhibition of IL-1-induced COX2 expression (Effect)) is 22.4%. Further, the inhibition at 25 µM in assay [1] (Homo sapiens, Fibroblast, compound 25 uM, IL-1 0.1 ng/ml, 6 hours, S112 cells, read-out: % inhibition of IL-1-induced COX2 expression (Effect)) turned out to be 21.3%. Further, in assay [1] (Homo sapiens, Fibroblast, compound 50 uM, IL-1 0.1 ng/ml, 6 hours, S112 cells, read-out: % inhibition of IL-1-induced COX2 expression (Effect)), the inhibition at 50 µM is 25.7%. In addition, the inhibition at 100 µM in assay [1] (Homo sapiens, Fibroblast, compound 100 uM, IL-1 0.1 ng/ml, 6 hours, S112 cells, read-out: % inhibition of IL-1-induced COX2 expression (Effect)) came out at 24.4%. In addition, the “% inhibition (IL-1 induced COX-2 expression)” value in assay [1] (Table 2 experiment 1: compound alone, 50 μM) amounted to 38.0%. In addition, in assay [2] (0.013-1.3 μM, six separate experiments), the “effect on proliferation of S112 cells treated with recombinant human MIF (FIG. 12)” value is recorded as “marked inhibitory effect”. Also, in assay [2] (Homo sapiens, Fibroblast, concentration 0.13 μM, rhMIF 50 ng/ml, S112 cells, read-out: % inhibition of proliferation compared to vehicle plus rhMIF-treated cells), the inhibition at 0.13 µM came out at 47%. Moreover, the EC50 came to 21.8 µM in assay [3] (mBSA 10 μg/ml); 104 µM in assay [3] (mBSA 50 μg/ml); 27 µM in assay [4] (Mus musculus, Peritoneal macrophage, [LPS] 10 ng/mL, 24 hours, read-out: EC50 (LPS-induced IL-1 release suppressed by 50%)). Further, the “inhibition of macrophage IL-1 release, dose-response (FIG. 13)” value in assay [4] (LPS 10 ng/ml, p<0.02) is “marked and statistically significant inhibition of macrophage IL-1 release”.
